Data as given in patent publication US8119697B2 (Yissum Research Development Company of the Hebrew …, priority 2002, dated 2012).

Columns and labels:
[1] = system: lithium-induced nausea (conditioned rejection reactions); conditions: previously reported, rats; cited from earlier work
[2] = system: lithium-induced nausea (conditioned rejection reactions); assay: Taste Reactivity (TR) test: lithium-induced conditioned rejection reactions to saccharin solution; assay type: in vivo, rats; conditions: for establishment of conditioned rejection reactions: pretreatment 5 mg/kg ip 30 min prior to conditioning trial (saccharin-lithium pairing), versus vehicle pretreatment
Description: [drawing 3] • In Experiment 1 were used 29 male rats and in Experiment 2 were used 24 male Sprague-Dawley rats (Charles River Labs, St. Constant, Quebec), which weighed 290-350 gm on the conditioning day. They were individually housed in stainless steel hanging cages in a colony room kept at 21° C. on a 12:12 hr light:dark schedule with the lights on at 07.00 h. Throughout the experiment, the rats were maintained on ad-lib Purina Rat Chow and water. The procedures were approved by the Wilfrid Laurier University Animal Care Committee according to the guidelines of the Canadian Council on Animal Care. • b. The rats were surgically implanted with intra-oral cannulae as described by Parker, L. A. Learn Motiv., 13, 281-303 (1982). The surgical anesthesia preparation included administration of 0.4 mg/kg atropine solution i.p. 15 min prior to ketamine (75 mg/kg, i.p.) combined with xylazine (10 mg/kg, i.p.) which was dissolved in sterile water and administered at a volume of 1 ml/kg. On each of three subsequent days during recovery from surgery, the cannulae were flushed with a chlorhexidine rinse (Novlosan; 0.1% chlorhexidine) to prevent infection. • c. […] The rats were randomly assigned to independent groups on the basis of the pretreatment drug and the conditioning drug. In Experiment 1, the groups were as follows: CBD-lithium (n=8), CBD-saline (n=6), Vehicle-lithium (n=8), Vehicle-saline (n=7). In Experiment 2, the groups were as follows: CBD-DMH-lithium (n=6), CBD-DMH-saline (n=6), Vehicle-lithium (n=6), Vehicle-saline (n=6). […] The order of the test trials was counterbalanced among the rats in each group. • d. […] On this trial, the water bottles were replaced with tubes containing the saccharin solution and the amounts consumed over a 6 hr period of drinking were recorded. • i. Taste reactivity scoring: A rater blind to the experimental conditions scored the videotapes on two occasions in slow motion (⅕ speed) using the Observer (Noldus, NL) event-recording program on a PC computer. […]

[3] = system: conditioned taste avoidance; assay: Consumption test of lithium-paired saccharin solution (conditioned taste avoidance); assay type: in vivo; conditions: pretreatment 5 mg/kg prior to conditioning; 6 hr consumption test on day following final TR test, non-deprived rats
Description: [drawing 3] • In Experiment 1 were used 29 male rats and in Experiment 2 were used 24 male Sprague-Dawley rats (Charles River Labs, St. Constant, Quebec), which weighed 290-350 gm on the conditioning day. They were individually housed in stainless steel hanging cages in a colony room kept at 21° C. on a 12:12 hr light:dark schedule with the lights on at 07.00 h. Throughout the experiment, the rats were maintained on ad-lib Purina Rat Chow and water. The procedures were approved by the Wilfrid Laurier University Animal Care Committee according to the guidelines of the Canadian Council on Animal Care. • b. The rats were surgically implanted with intra-oral cannulae as described by Parker, L. A. Learn Motiv., 13, 281-303 (1982). The surgical anesthesia preparation included administration of 0.4 mg/kg atropine solution i.p. 15 min prior to ketamine (75 mg/kg, i.p.) combined with xylazine (10 mg/kg, i.p.) which was dissolved in sterile water and administered at a volume of 1 ml/kg. […] On this trial, the water bottles were replaced with tubes containing the saccharin solution and the amounts consumed over a 6 hr period of drinking were recorded. • i. Taste reactivity scoring: A rater blind to the experimental conditions scored the videotapes on two occasions in slow motion (⅕ speed) using the Observer (Noldus, NL) event-recording program on a PC computer. […]

[4] = target: CB1 receptor (Homo sapiens, UniProt P21554); conditions: cited from earlier work
[5] = system: conditioned taste avoidance; conditions: previously reported, as pretreatment agent; cited from earlier work

CB1 receptor, sequence (P21554 whole entry): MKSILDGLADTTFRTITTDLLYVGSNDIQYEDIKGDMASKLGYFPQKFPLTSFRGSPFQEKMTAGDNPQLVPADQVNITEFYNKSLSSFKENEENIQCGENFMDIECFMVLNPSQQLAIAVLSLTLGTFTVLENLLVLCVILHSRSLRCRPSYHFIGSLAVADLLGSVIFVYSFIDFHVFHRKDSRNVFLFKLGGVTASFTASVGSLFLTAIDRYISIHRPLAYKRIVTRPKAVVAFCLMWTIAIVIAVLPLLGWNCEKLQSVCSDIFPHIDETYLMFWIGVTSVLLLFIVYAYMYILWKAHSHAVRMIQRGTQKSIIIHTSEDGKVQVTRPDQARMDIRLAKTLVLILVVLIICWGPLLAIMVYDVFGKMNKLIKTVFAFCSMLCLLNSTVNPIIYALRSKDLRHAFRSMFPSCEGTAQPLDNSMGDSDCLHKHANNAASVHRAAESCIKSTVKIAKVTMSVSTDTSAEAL

## CCCCCc1cc(O)c2c(c1)OC(C)(C)[C@@H]1CCC(C)=C[C@@H]21 [THC]
[1]
  establishment and expression of conditioned rejection reactions: interfered with the establishment and the expression of conditioned rejection reactions

## C=C(C)C1CCC(C)=CC1c1c(O)cc(C(C)(C)CCCCCC)cc1O (stereo not drawn) [CBD-DMH, cannabidiol-dimethyl heptyl]
[2]
  establishment of conditioned rejection reactions: interfered with the establishment of conditioned rejection reactions
[3]
  strength of avoidance response (ml saccharin solution consumed): did not modulate the strength of the avoidance response
[4]
  affinity for the CB1 receptor: relatively weak affinity

## C=C(C)[C@@H]1CCC(C)=C[C@H]1c1c(O)cc(CCCCC)cc1O [CBD, cannabidiol]
[2]; 5 mg/kg ip 30 min prior to TR test trial, lithium-conditioned male Sprague-Dawley rats, versus vehicle test trial
  expression of previously established conditioned rejection reactions: attenuated the expression of previously established conditioned rejection reactions
[2]
  establishment of conditioned rejection reactions: attenuated the establishment of conditioned rejection reactions
[3]
  strength of avoidance response (ml saccharin solution consumed): did not modulate the strength of the avoidance response

## Cc1nccn1CC1CCc2c(c3ccccc3n2C)C1=O (stereo not drawn) [ondansetron]
[1]
  establishment and expression of conditioned rejection reactions: interfered with the establishment and the expression of conditioned rejection reactions
[5]
  establishment of conditioned taste avoidance in a consumption test: did not interfere with the establishment of conditioned taste avoidance
